This note sets out measurements from ChEMBL document CHEMBL1125783, “Novel 1-phenylcycloalkanecarboxylic acid derivatives as potential anticonvulsant agents” (1991).

Values joined by “and” are separate entries in the source; they are usually repeats but may differ in a detail not shown here. Equal values may be shown once. Active and inactive are the calls of the source. No cut-off for these calls is given here.

The test system of the first assay is Rattus norvegicus. The assay is described as follows: Anticonvulsant activity in rats, using MES(maximal electroshock), after subcutaneous administration. Format: functional. The settings on record: sc.
Compound `CCN(CC)CCOCCOCC1(c2ccccc2)CCCCC1` showed an ED50 of 86 µmol/kg.

As to `O=C1NC(=O)C(c2ccccc2)(c2ccccc2)N1` [PHENYTOIN], the 50% effect level (ED50) was put at a dose of 30 µmol/kg.

In another assay the test system is Rattus norvegicus. The assay is described as follows: Anticonvulsant activity in rats using MES (maximal electroshock) after subcutaneous administration; IA-Inactive up to dose of 50 mg/kg. Format: functional, organism-based. Set-up: dose 50 mg/kg.
Details: not given
Consider `CCN(CC)CCOCCN(C)CC1(c2ccccc2)CCCC1`, for which the ED50 result is “inactive”.

For the compound `CCN(CC)CCOCCNCC1(c2ccccc2)CCCC1`, the ED50 result was “inactive”.

With `CCN(CC)CCOCCNCC1(c2ccccc2)CCCCC1`, the ED50 result was “inactive”.

For `CCN(CC)CCOCCNC(=O)C1(c2ccccc2)CCCCC1`, the ED50 result was “inactive”.

On to `CCN(CC)CCOCCNC(=O)C1(c2ccccc2)CCCC1`, for which the ED50 entry is “inactive”.

The test system of another assay is Rattus norvegicus. As to the kind of experiment: Anticonvulsant activity in rats using MES (maximal electroshock) after subcutaneous administration. Format: functional. Conditions: sc.
The compound `CCN(CC)CCOCCOCC1(c2ccccc2)CCCCC1` gave an ED50 of 37 mg/kg.

Consider `CCN(CC)CCOCCOC(=O)C1(c2ccccc2)CCCC1` [CARBETAPENTANE], for which the ED50 was 25 mg/kg and 48 µmol/kg.

Regarding `CCN(CC)CCOCCOC(=O)C1(c2ccccc2)CCCCC1`, the median effective dose (ED50) was 93 mg/kg and 173 µmol/kg.

Compound `O=C1NC(=O)C(c2ccccc2)(c2ccccc2)N1` [PHENYTOIN] returned an ED50 of 8 mg/kg.

Turning to `CCN(CC)CCOCCOCC1(c2ccccc2)CCCC1`, the ED50 was 7 mg/kg and 16 µmol/kg.
